# From PubChem BioAssay AID1648 (Sanford-Burnham Center for Chemical Genomics, 2009)
# Active and inactive are the calls of the source. How the calls were made is not given here.
# Target: Serine/threonine-protein kinase mTOR (Homo sapiens) (UniProt P42345)
# Assay: binders of mTOR FRB domain, biophysical, NMR (AID 1648)
# Conditions: NMR binding to FRB domain, chemical shift
# Chain of Serine/threonine-protein kinase mTOR (Homo sapiens) (P42345 2015-2114): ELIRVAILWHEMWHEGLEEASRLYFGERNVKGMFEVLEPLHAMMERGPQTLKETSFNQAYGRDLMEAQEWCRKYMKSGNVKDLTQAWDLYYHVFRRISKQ
row,SMILES,Kd
1,Fc1cccc(Cl)c1CN1CCCNCC1,> 4 mM (inactive)
2,O=C(NCc1ccccn1)c1ccc(Br)s1,> 4 mM (inactive)
3,COCC(=O)Nc1cccc(Br)c1,> 4 mM (inactive)
4,O=c1c[n+]([O-])c2ccccc2n1OCc1ccccn1,> 4 mM (inactive)
5,CC(=O)NC(=S)Nc1ccc(N(C)C(C)=O)cc1,> 4 mM (inactive)
6,O=C1Nc2ccccc2C12OCCO2,> 4 mM (inactive)
7,Cc1cc(C)n(-c2nc(C)nc(N)n2)n1,> 4 mM (inactive)
8,CC1(C)C2CC[C@]3(C)C(C(=O)C=C4[C@H]5C[C@@](C)(C(=O)O)CC[C@]5(C)CC[C@]43C)[C@@]2(C)CC[C@@H]1O (some centres undefined),> 4 mM (inactive)
9,CCOC(=O)c1c(C)[nH]c2ccc(O)cc12,> 4 mM (inactive)
10,CC(O)c1nc2ccccc2[nH]1 (centres undefined),> 4 mM (inactive)
11,O=c1cc(-c2ccc(O)cc2)[nH]c(=S)[nH]1,> 4 mM (inactive)
12,CC1(C)CC2C1CC[C@]1(C)CCC3C(C(=O)O)CC(=O)O[C@@]32C1 (some centres undefined),> 4 mM (inactive)
13,O=C(NCc1ccccc1Br)c1ccco1,> 4 mM (inactive)
14,Cc1cc(=O)n2[nH]cnc2n1,> 4 mM (inactive)
15,COC1C=CC23c4cc5c(cc4CN(CC2O)[C@@H]3C1)OCO5 (some centres undefined),> 4 mM (inactive)
16,Cc1ccccc1CSc1nncn1N,> 4 mM (inactive)
17,CC(=O)OCc1cc(=O)n(C)c(=O)n1C,> 4 mM (inactive)
18,O=c1[nH]cc(S(=O)(=O)N2CCc3ccccc32)c(=O)[nH]1,> 4 mM (inactive)
19,Cc1ccc(S(=O)(=O)CC(=O)N(C)C)cc1,> 4 mM (inactive)
20,Cc1nn(C)c(Cl)c1C(O)c1c(C)nn(C)c1Cl,> 4 mM (inactive)
21,CCCS(=O)(=O)N1CCN(c2ccccc2F)CC1,> 4 mM (inactive)

row,SMILES,Kd
1,CC(=O)NC1(NC(C)=O)CCN(C)CC1,> 4 mM (inactive)
2,CC1(C)SCC(C(=O)O)N1C=O (centres undefined),> 4 mM (inactive)
3,Cn1cc(C(=O)N/N=C/c2ccccc2)ccc1=O,> 4 mM (inactive)
4,Cc1cc2cc(N)ccc2[nH]1,> 4 mM (inactive)
5,O=C(Nn1cnnc1)c1ccccc1Cl,> 4 mM (inactive)
6,Cc1nn(-c2ccccc2)nc1C(N)=O,> 4 mM (inactive)
7,CC1CCN(C(=O)c2ccc3c(c2)OCCO3)CC1,> 4 mM (inactive)
8,CCOC(=O)CNC(=O)CSc1nnc(C)c(=O)[nH]1,> 4 mM (inactive)
9,Cc1cn2c(-c3cccnc3)nnc2s1,> 4 mM (inactive)
10,CCOC(=O)c1ccc(Oc2ccc(C)nn2)cc1,> 4 mM (inactive)
11,NCc1csc(-c2cccs2)n1,> 4 mM (inactive)
12,O=C(NCc1ccco1)c1cccc(F)c1,> 4 mM (inactive)
13,Cc1c(N=Cc2ccco2)c(=O)n(-c2ccccc2)n1C,> 4 mM (inactive)
14,COc1ccc(-c2cc(=O)c3cc(OC)ccc3o2)cc1,> 4 mM (inactive)
15,NC(=O)c1ccc(-c2csnn2)cc1,> 4 mM (inactive)
16,O=C(NCCCO)c1ccncc1,> 4 mM (inactive)
17,O=C(c1cccs1)N1CCCc2ccccc21,> 4 mM (inactive)
18,CN(C)C(=O)CSc1nc(N)cc(=O)[nH]1,> 4 mM (inactive)
19,O=c1[nH]cc(S(=O)(=O)Nc2ccccc2)c(=O)[nH]1,> 4 mM (inactive)
20,CSc1ccccc1C(=O)N1CCOCC1,> 4 mM (inactive)
21,CN(c1ccc(C(=O)N2CCCCC2)cc1)S(C)(=O)=O,> 4 mM (inactive)

row,SMILES,Kd
1,OC1(c2ccc(Cl)cc2)CCNCC1,> 4 mM (inactive)
2,CC(=O)O[C@H]1CC[C@@]2(C)C(=CCC3C2CC[C@@]2(C)C3CC[C@@H]2C(C)CCCC(C)C)C1 (some centres undefined),> 4 mM (inactive)
3,C=C(C)C1(O)OC(=O)C=C1OC (centres undefined),> 4 mM (inactive)
4,Cc1nn(-c2ccccc2)nc1C(=O)O,> 4 mM (inactive)
5,CC(C)C(C)/C=C/C(C)C1CCC2C3=CC=C4CC(O)CCC4(C)C3CCC21C (centres undefined),> 4 mM (inactive)
6,COc1ccccc1C(=O)Nc1ccccn1,> 4 mM (inactive)
7,CC[C@@H]1[C@@H](O)N2C3C[C@H]1C1C(O)[C@]4(C[C@@H]12)c1ccccc1N(C)[C@@H]34 (some centres undefined),> 4 mM (inactive)
8,Cn1c(NCC(=O)O)nc2c1c(=O)[nH]c(=O)n2C,> 4 mM (inactive)
9,Cc1n[nH]c(C)c1NC(=O)c1cccc(F)c1,> 4 mM (inactive)
10,O=C1NC(=S)NC(=O)C1=Cc1cccs1,> 4 mM (inactive)
11,NCc1ccccc1N1CCOCC1,> 4 mM (inactive)
12,CS(=O)(=O)N1CCN(c2ccccc2F)CC1,> 4 mM (inactive)
13,COCCn1c(N)nc2c1c(=O)[nH]c(=O)n2C,> 4 mM (inactive)
14,COc1ccc2c(c1)OCc1c-2oc2cc(OC)ccc12,> 4 mM (inactive)
15,CC1CC[C@@]2(OC1)O[C@H]1CC3C4CC[C@@H]5C[C@@H](O)CC[C@]5(C)C4CC[C@]3(C)[C@H]1[C@@H]2C (some centres undefined),> 4 mM (inactive)
16,Cc1oc(-c2ccccc2)cc1CO,> 4 mM (inactive)
17,COC(=O)N1CCN(c2ccc(C(C)=O)cc2)CC1,> 4 mM (inactive)
18,COc1ccc2c(c1O)-c1c(OC)c(OC)cc3c1[C@H](C2)N(C)CC3,> 4 mM (inactive)
19,O=c1[nH]nc(Cc2ccncc2)c2ccccc12,> 4 mM (inactive)
20,COC(=O)c1cncc(C(=O)OC)c1,> 4 mM (inactive)
21,OCCN1CCN(C(=S)c2ccc(Cl)cc2)CC1,> 4 mM (inactive)

row,SMILES,Kd
1,COC1=CC(=O)C(O)=C/C1=C\C=C\c1ccccc1,> 4 mM (inactive)
2,CC(=O)c1cc(C(N)=O)c(=S)[nH]c1C,> 4 mM (inactive)
3,OC1CC2CCC1C2 (centres undefined),> 4 mM (inactive)
4,OC1CCN(c2nccc(C(F)(F)F)n2)CC1,> 4 mM (inactive)
5,O=C1Cn2c(nc3ccccc32)N1c1ccccc1F,> 4 mM (inactive)
6,COc1cc(OC)c2c(c1)O[C@H](c1ccc(OC)c(OC)c1)[C@@H](O)C2,> 4 mM (inactive)
7,O=C1C2CCCCC2C(=O)N1c1nccs1 (centres undefined),> 4 mM (inactive)
8,CC(=O)NC(=S)Nc1ccc(S(N)(=O)=O)cc1,> 4 mM (inactive)
9,Cc1cc(C(=O)NCc2cccs2)c(C)o1,> 4 mM (inactive)
10,O=C(O)C1CCCCN1Cc1ccccc1 (centres undefined),> 4 mM (inactive)
11,CCCN1CCC(N2CCC(O)CC2)CC1,> 4 mM (inactive)
12,Cc1cc(C(=O)Nc2cccnc2)cs1,> 4 mM (inactive)
13,C[C@@H]1CC[C@@]2(OC1)OC1CC3C4CC=C5C[C@@H](O)CC[C@]5(C)C4CC[C@]3(C)C1[C@@H]2C (some centres undefined),> 4 mM (inactive)
14,Oc1ccc2c(c1)OCC1(O)Cc3cc(O)c(O)cc3C21 (centres undefined),> 4 mM (inactive)
15,C=C1C2CC[C@H]3[C@]4(C)C[C@H](OC5OC(CO)C(OS(=O)(=O)O)C(OS(=O)(=O)O)C5OC(=O)CC(C)C)C[C@@H](C(=O)O)[C@H]4CC[C@]3(C2)[C@H]1O (some centres undefined),> 4 mM (inactive)
16,O=C1NC(=O)/C(=C/c2ccc(O)cc2)N1,> 4 mM (inactive)
17,Cc1nnc(Nc2cccnc2)[nH]c1=O,> 4 mM (inactive)
18,Cc1occc1C(=O)Nc1cc(C(C)(C)C)on1,> 4 mM (inactive)
19,Cc1ccc(C(=O)NC2=NCCS2)o1,> 4 mM (inactive)
20,CSc1ccc(C(=S)N2CCN(C)CC2)cc1,> 4 mM (inactive)
21,O=C(O)/C=C/C(=O)Nc1ccccc1C(F)(F)F,> 4 mM (inactive)
